Results on eight compounds are retold here after ChEMBL document CHEMBL1201862, “PubChem BioAssay data set” (2004).

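Growth conditions: 96-well plates. Treatment: test compound, 48 hours, 5 concentrations. Analysis: linear interpolation between bracketing concentrations; unreached endpoints set to highest concentration. GI50 is the concentration that inhibits growth by half.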 The source made the active and inactive calls. Cut-off read from the data, not from the text of the source: active = GI50 up to about 1.1 µM and inactive = higher.

Some test systems named below: A498; CAKI-1; COLO 205; DLD-1; HCC 2998; HL-60; HT-29; K562; NCI-H226; NCI-H522; OVCAR-3; OVCAR-8; RPMI-8226; SF-295; SK-MEL-2; SNB-19; UACC-257; UO-31.
Test in all cases: DTP human tumour cell line panel, 48 h

Regarding `C/C=C/C1(NS(=O)(=O)c2ccc(C)cc2)CCC(C(C)(C)C)CC1` (configuration not stated), the GI50 – broadly, the concentration that inhibits growth by half – in the assay on A498 is 24 µM (inactive); in the assay on CAKI-1, 28.8 µM (inactive); with COLO 205 it was 20 µM (inactive); with DLD-1 it was 35.8 µM (inactive); in the assay with HCC 2998, 16.2 µM (inactive); in the assay on HL-60, 23.4 µM (inactive). Besides, the GI50 was 18 µM (inactive) in the assay with HT-29; 35.5 µM (inactive) in the assay with K562; 20.6 µM (inactive) in the assay with NCI-H226; 11.6 µM (inactive) with NCI-H522; 17.7 µM (inactive) in the assay with OVCAR-3; 36.1 µM (inactive) with OVCAR-8. The GI50 with RPMI-8226 was 21.6 µM (inactive); with SF-295 it was 26.2 µM (inactive); in the assay on SK-MEL-2, 17.3 µM (inactive); in the assay on SNB-19 it was 42.2 µM (inactive); with UACC-257, 25.4 µM (inactive); in the assay with UO-31, 25.4 µM (inactive).
As for `c1ccc2c(OCCSCCCCCCCCCCSCCOc3cccc4ccccc34)cccc2c1`, the GI50 in the assay on A498, in the assay with CAKI-1, with COLO 205, in the assay on DLD-1, in the assay on HCC 2998 and in the assay with HL-60 was > 100 µM (inactive) throughout. Moreover, the GI50 in the assay on HT-29, with K562, in the assay on NCI-H226, with NCI-H522, with OVCAR-3 and in the assay with OVCAR-8 was > 100 µM (inactive) in each case. Further, the GI50 in the assay with RPMI-8226, with SF-295, in the assay with SK-MEL-2, in the assay on SNB-19, in the assay with UACC-257 and with UO-31 was > 100 µM (inactive) in each case.
`CCCCCCCCCCCCCC(=O)O[C@H]1CC[C@H](NC(=O)[C@H](OC)[C@H](O)[C@@H](O)[C@H](O)/C=C/C(C)C)C(=O)N(C)C1` [BENGAMIDE B]: the GI50 is > 15 µM (inactive) in the assay on A498; 0.0216 µM (active) in the assay on CAKI-1; 0.00259 µM (active) with COLO 205; 0.00705 µM (active) in the assay with DLD-1; 0.00195 µM (active) in the assay on HCC 2998; 0.01 µM (active) in the assay with HL-60. Further, the GI50 was 0.00479 µM (active) in the assay on HT-29; 0.00811 µM (active) in the assay with K562; 0.00592 µM (active) in the assay with NCI-H226; 0.00577 µM (active) in the assay on NCI-H522; 0.00643 µM (active) in the assay on OVCAR-3; 0.00782 µM (active) in the assay with OVCAR-8. Also, the GI50 in the assay on RPMI-8226 was 0.0895 µM (active); with SF-295, 0.00675 µM (active); in the assay with SK-MEL-2, 0.0334 µM (active); in the assay on SNB-19, 0.008 µM (active); in the assay on UACC-257, 0.0331 µM (active); in the assay with UO-31, 0.0208 µM (active).
With `N#CCCN(c1ccc(/C=N/c2ccccc2Cl)cc1)S(=O)(=O)c1ccccc1`, the GI50 in the assay on A498, with CAKI-1, with COLO 205, with DLD-1, in the assay on HCC 2998 and in the assay with HL-60 was > 100 µM (inactive) in each case. In addition, the GI50 in the assay on HT-29, in the assay on K562, in the assay on NCI-H226, with NCI-H522, in the assay on OVCAR-3 and in the assay on OVCAR-8 was > 100 µM (inactive) throughout. For the same compound, the GI50 with RPMI-8226, in the assay with SF-295, in the assay with SK-MEL-2, in the assay on SNB-19, with UACC-257 and in the assay on UO-31 was > 100 µM (inactive) in each case.
Consider `O=C(CC(=O)c1cccc([N+](=O)[O-])c1)C(=O)Nc1ccccc1`, for which the GI50 in the assay with A498, in the assay on CAKI-1, in the assay on DLD-1, in the assay on HCC 2998, in the assay on HL-60 and in the assay with HT-29 was > 100 µM (inactive) throughout. Moreover, the GI50 in the assay on K562, in the assay with NCI-H226, in the assay with NCI-H522, in the assay with OVCAR-3, in the assay on OVCAR-8 and in the assay on RPMI-8226 was > 100 µM (inactive) throughout. Moreover, the GI50 in the assay on SF-295, in the assay on SK-MEL-2, in the assay with SNB-19, with UACC-257 and in the assay with UO-31 was > 100 µM (inactive) each time.
`Clc1ccc(-c2c(C3=NCCN3)nnn2-c2ccc(Cl)cc2)cc1`: the GI50 was 17.4 µM (inactive) with A498; 33.5 µM (inactive) in the assay with CAKI-1; 12.6 µM (inactive) with COLO 205; 27.9 µM (inactive) in the assay with DLD-1; 17.1 µM (inactive) in the assay on HCC 2998; 17.5 µM (inactive) in the assay with HL-60. Besides, the GI50 in the assay with HT-29 was 13.9 µM (inactive); in the assay with K562, 18 µM (inactive); with NCI-H226 it was 60.4 µM (inactive); in the assay on NCI-H522 it was 16 µM (inactive); in the assay with OVCAR-3, 48.9 µM (inactive); in the assay with OVCAR-8, 58.3 µM (inactive). The GI50 was 16.7 µM (inactive) in the assay with RPMI-8226; 19.5 µM (inactive) in the assay on SF-295; 13.1 µM (inactive) in the assay with SK-MEL-2; 29.4 µM (inactive) in the assay on SNB-19; 18.2 µM (inactive) with UACC-257; 14.4 µM (inactive) in the assay with UO-31.
Turning to `CCN(CC)C(=O)c1cccc2c(OC)ccc(OC)c12`, the GI50 with A498, in the assay with CAKI-1, in the assay with COLO 205, with DLD-1, with HCC 2998 and with HL-60 was > 100 µM (inactive) each time. Moreover, the GI50 in the assay with HT-29, in the assay with K562, in the assay on NCI-H226, in the assay with NCI-H522, in the assay with OVCAR-3 and with OVCAR-8 was > 100 µM (inactive) throughout. Besides, the GI50 in the assay with RPMI-8226, in the assay on SF-295, in the assay on SK-MEL-2, in the assay with SNB-19, with UACC-257 and in the assay on UO-31 was > 100 µM (inactive) each time.
As to `C/C(=C\Cc1cc(O)ccc1O)CCc1c(C)c(O)c(O)c(C=O)c1C` [PANICEIN C], the GI50 in the assay on A498 is 49.2 µM (inactive); with CAKI-1 it was 26.7 µM (inactive); with COLO 205, 18.6 µM (inactive); in the assay on DLD-1, 21.1 µM (inactive); in the assay with HCC 2998 it was 47.9 µM (inactive); with HL-60, > 100 µM (inactive). The GI50 in the assay on HT-29 was 29.2 µM (inactive); in the assay with K562, > 100 µM (inactive); with NCI-H226, 34.5 µM (inactive); in the assay on NCI-H522 it was 5.24 µM (inactive); with OVCAR-3 it was 21.2 µM (inactive); with OVCAR-8, 17.9 µM (inactive). In addition, the GI50 in the assay with RPMI-8226 is 17.4 µM (inactive); in the assay on SF-295 it was 25.4 µM (inactive); in the assay with SK-MEL-2, 23.2 µM (inactive); with SNB-19, 35.2 µM (inactive); with UO-31, 28.2 µM (inactive).
